# Results published in patent publication US11655239B2 (SHANGHAI INSTITUTE OF MATERIAL MEDICA, CHINESE ACADEMY OF …, priority 2019, dated 2023).
# How the values were obtained:
# AXL = AXL (Homo sapiens (Human), UniProt P30530); experiment: Enzyme selectivity test (ELISA), AXL; type: biochemical
# Method: (§1) 1) Enzyme reaction substrate Poly(Glu, Tyr) 4:1 was diluted to 20 μg/mL with potassium-free PBS (10 mM sodium phosphate buffer, 150 mM NaCl, pH 7.2-7.4), and the microtiter plate was coated with 125 μL/well and placed at 37° C. for 12-16 hours of reaction. The liquid in the well was discard. The plate was washed three times with T-PBS (potassium-free PBS containing 0.1% Tween-20, 200 μL/well), 5 minutes each time. The ELISA plate was dried in an oven at 37° C. for 1 to 2 hours.
# (§2) 2) Reaction buffer (50 mM HEPES pH 7.4, 50 mM MgCl2, 0.5 mM MnCl2, 0.2 mM Na3VO4, 1 mM DTT) diluted ATP solution (49 μL) was added to each well, 1 μL of the compound to be tested was added to each well, and then 50 μL of DDR2 kinase domain recombinant protein diluted in the reaction buffer was added to start the reaction. Two control wells without ATP were set in each experiment. The plate placed on a shaker (100 rpm) at 37° C. for 1 hour of reaction. The liquid in the well was discarded and the plate was washed three times with T-PBS.
# (§3) 3) Antibody PY99 dilution solution (the antibody was diluted 1:500 with T-PBS containing BSA 5 mg/mL) was added at 100 μL/well, and shaken on a shaker at 37° C. for 0.5 hour of reaction. The liquid in the well was discarded and the plate was washed three times with T-PBS.
# (§4) 4) Horseradish peroxidase labeled goat anti-murine secondary antibody dilution solution (the antibody is diluted 1:2000 with T-PBS containing BSA 5 mg/ml) was added at 100 μL/well, and shaken on a shaker at 37° C. for 0.5 hour of reaction. The liquid in the well was discarded and the plate was washed three times with T-PBS.
# (§5) 5) 2 mg/ml of OPD color developing solution [diluted with 0.1 M citric acid-sodium citrate buffer (pH=5.4) containing 0.03% H2O2] was added at 100 μL/well and reacted for 1 to 10 minutes at 25° C. in the dark.
# (§6) 6) 2M H2SO4 was added at 50 μL/well to stop the reaction, and a tunable wavelength microplate reader VERSAmax was used for reading at a wavelength of 490 nm.
# (§7) The IC50 value was obtained by four-parameter regression using the software that came with the microplate reader. […]
# VEGFR-1 = VEGFR-1 (Homo sapiens (Human), UniProt P17948); experiment: Enzyme selectivity test (ELISA), VEGFR-1; type: biochemical
# Method: as §1, §2, §3, §4, §5, §6, §7
# FGFR-2 = FGFR-2 (Homo sapiens (Human), UniProt P21802); experiment: Enzyme selectivity test (ELISA), FGFR-2; type: biochemical
# Method: as §1
# (§8) 2) Reaction buffer (50 mM HEPES pH 7.4, 50 mM MgCl2, 0.5 mM MnCl2, 0.2 mM Na3VO4, 1 mM DTT) diluted ATP solution (49 μL) was added to each well, 1 μL of the compound to be tested was added to each well, and then 50 μL of DDR2 kinase domain recombinant protein diluted in the reaction buffer was added to start the reaction. Two control wells without ATP were set in each experiment. The plate placed on a shaker (100 rpm) at 37° C. for 1 hour of reaction. The liquid in the well was discarded and the plate was washed three times with T-PBS. […]
# as §6, §7
# Flt-3 = Flt-3 (Homo sapiens (Human), UniProt P36888); experiment: Enzyme selectivity test (ELISA), Flt-3; type: biochemical
# Method: as §1, §2, §3, §4, §5, §6, §7
# DDR2 = DDR2 (Homo sapiens (Human), UniProt Q16832); experiment: DDR2 enzyme activity test (ELISA); type: biochemical; conditions: read-out: DDR2 IC50
# Method: The optical rotation and the inhibitory activity against DDR2 enzyme of the compounds S11-A and S11-B obtained by the resolution in Example 12, and the chirally synthesized compounds S11-A′ and S11-B′ in Example 13 were tested (referred to the operation in Effect example 1), and the results are shown in Table 3 below:
# Detection method: Enzyme-linked immunosorbent assay (ELISA)
# Test receptor tyrosine kinase: DDR2
# The kinase used in the experiment was obtained by our laboratory using the insect baculovirus expression system to express and purify the recombinant protein containing the protein kinase region; polyglutamic acid-tyrosine peptide segment [Poly(Glu, Tyr) 4:1] and sodium vanadate were purchased from Sigma; the anti-phosphorylated monoclonal antibody PY99 was purchased from Santa Cruz; horseradish peroxidase labeled goat anti-murine secondary antibody was purchased from Calbiochem; ATP and OPD were purchased from Sangon Biotech (Shanghai) Co., Ltd.; the remaining reagents were purchased from Sinopharm Chemical Reagent Co., Ltd. The reaction ELISA plate (#2592) was purchased from Corning. The full-wavelength microplate reader for experiment reading was a product of Molecular Device, model: SpectraMax 190; the experimental water was distilled water produced by Sinopharm Group.
# The compound was centrifuged at 12,000 g for 5 min, and DMSO was added to prepare a 10^-2M stock solution, which was vortexed evenly, then sonicated for 10 min and stored at −40° C. for later use. During the test, the compound was diluted with DMSO from the stock solution to 100 times the test concentration (the DMSO concentration in the system was 1%).
# as §1, §2, §3, §4, §5, §6
# The IC50 value was obtained by four-parameter regression using the software that came with the microplate reader.
# PDGFR-β = PDGFR-β (Homo sapiens (Human), UniProt P09619); experiment: Enzyme selectivity test (ELISA), PDGFR-β; type: biochemical
# Method: as §1, §2, §3, §4, §5, §6, §7
# FGFR-4 = FGFR-4 (Homo sapiens (Human), UniProt P22455); experiment: Enzyme selectivity test (ELISA), FGFR-4; type: biochemical
# Method: as §1, §8, §6, §7
# PDGFR-α = PDGFR-α (Homo sapiens (Human), UniProt P16234); experiment: Enzyme selectivity test (ELISA), PDGFR-α; type: biochemical
# Method: as §1, §2, §3, §4, §5, §6, §7
# KDR = KDR (Homo sapiens (Human), UniProt P35968); experiment: Enzyme selectivity test (ELISA), KDR; type: biochemical
# Method: as §1, §2, §3, §4, §5, §6, §7
# RET = RET (Homo sapiens (Human), UniProt P07949); experiment: Enzyme selectivity test (ELISA), RET; type: biochemical
# Method: as §1, §2, §3, §4, §5, §6, §7
# ALK = ALK (Homo sapiens (Human), UniProt Q9UM73); experiment: Enzyme selectivity test (ELISA), ALK; type: biochemical
# Method: as §1, §2, §3, §4, §5, §6, §7
# Met = Met (Homo sapiens (Human), UniProt P08581); experiment: Enzyme selectivity test (ELISA), Met; type: biochemical
# Method: as §1, §2, §3, §4, §5, §6, §7
# ErbB4 = ErbB4 (Homo sapiens (Human), UniProt Q15303); experiment: Enzyme selectivity test (ELISA), ErbB4; type: biochemical
# Method: as §1, §2, §3, §4, §5, §6, §7
# Abl = Abl (Homo sapiens (Human), UniProt P00519); experiment: Enzyme selectivity test (ELISA), Abl; type: biochemical
# Method: as §1, §2, §3, §4, §5, §6, §7
# FGFR-3 = FGFR-3 (Homo sapiens (Human), UniProt P22607); experiment: Enzyme selectivity test (ELISA), FGFR-3; type: biochemical
# Method: as §1, §8, §6, §7
# C-Kit = C-Kit (Homo sapiens (Human), UniProt P10721); experiment: Enzyme selectivity test (ELISA), C-Kit; type: biochemical
# Method: as §1, §2, §3, §4, §5, §6, §7
# EPH-A2 = EPH-A2 (Homo sapiens (Human), UniProt P29317); experiment: Enzyme selectivity test (ELISA), EPH-A2; type: biochemical
# Method: as §1, §2, §3, §4, §5, §6, §7
# ErbB2 = ErbB2 (Homo sapiens (Human), UniProt P04626); experiment: Enzyme selectivity test (ELISA), ErbB2; type: biochemical
# Method: as §1, §2, §3, §4, §5, §6, §7
# Src = Src (Homo sapiens (Human), UniProt P12931); experiment: Enzyme selectivity test (ELISA), Src; type: biochemical
# Method: as §1, §2, §3, §4, §5, §6, §7
# FGFR-1 = FGFR-1 (Homo sapiens (Human), UniProt P11362); experiment: Enzyme selectivity test (ELISA), FGFR-1; type: biochemical
# Method: as §1, §2, §3, §4, §5, §6, §7
# IGF-1R = IGF-1R (Homo sapiens (Human), UniProt P08069); experiment: Enzyme selectivity test (ELISA), IGF-1R; type: biochemical
# Method: as §1, §2, §3, §4, §5, §6, §7
# kinases = experiment: Enzyme selectivity test, kinase panel overall; type: biochemical; conditions: kinase panel of Table 5
# Text: Except that the enzyme was different, other test methods and conditions were the same as the DDR2 enzyme activity test method in Effect example 1.
# EGFR = EGFR (Homo sapiens (Human), UniProt P00533); experiment: Enzyme selectivity test (ELISA), EGFR; type: biochemical
# Method: as §1, §2, §3, §4, §5, §6, §7
# [1] = system: bronchial epithelial cell line Beas-2B; experiment: Cytotoxic activity test (MTS), Beas-2B; type: cell-based, human; conditions: 5 μM
# Method: (§9) Experimental objective: The cytotoxic activity of compound S15 on bronchial epithelial cell line Beas-2B and lung fibroblast cell line MRC-5 was tested.
# (§10) 1) The human bronchial epithelial cell line Beas-2B and the human embryonic lung fibroblast cell line MRC-5 were collected, and inoculated at a certain density (about 5000-10000 cells) on a 96-well plate (the edge wells were filled with sterile water or PBS). A control was set on each plate (100 μL of culture medium was added);
# (§11) 2) The plate was incubated overnight at 37° C., 5% CO2. The plate was turned upside down and observed under the microscope.
# (§12) 3) The solutions of different concentrations of the compounds to be tested were added to each well, and a control well (culture medium and MTS solution with cells but no drug) and a blank well (without cells, medium and MTS solution) were set, 3 to 5 repetition wells were set for each group. Incubation was performed at 37° C. for 48-72 hours.
# (§13) 4) 10 μL/well of MTS/PMS (20:1, Promega Corp) solution was added to each well containing 100 μL of culture medium, and then the plate was gently shaken. The plate was incubated at 37° C. for 2 to 4 hours.
# (§14) 5) M5 microplate reader (Molecular Device, USA) was used to measure the absorbance of the solution at 490 nm. […]
# [2] = system: mouse model of BLM-induced lung injury; experiment: Histopathological evaluation of lung sections, H&E staining; type: in vivo; conditions: mice
# Method: Experimental objective: This group of experiments aimed to investigate the therapeutic potential of the compound S15 in acute lung injury and inflammation induced by bleomycin (BLM).
# Experimental grouping (8 mice per group):
# Model group (BLM): the mice received BLM (1.7 U/kg) via intratracheal instillation;
# Compound S15 group (S15): this group was divided into three dose groups, namely 30, 60 and 90 mg/kg;
# Positive control group (Nintedanib): Nintedanib administration group;
# Negative control group (Control): only saline was used.
# 1) Material acquisition: The fresh tissue was fixed in 4% paraformaldehyde for more than 24 hours. The tissue was removed from the fixative solution and trim the tissue at the target site. The trimmed tissue was marked and placed in the dehydration box for later use.
# 2) Dehydration: The dehydration box was put in the dehydrator and different concentration gradients of ethanol was used sequentially for dehydration. 75% ethanol (4 hours), 85% ethanol (2 hours), 90% ethanol (2 hours), 95% ethanol (1 hour), absolute ethanol I (30 minutes), absolute ethanol II (30 minutes), alcohol benzene (5-10 minutes), xylene I (5-10 minutes), xylene II (5-10 minutes), wax I (1 hour), wax II (1 hour), wax III (1 hour).
# 3) Embedment: The wax melted at high temperature was put into the embedding frame; before the wax was cooled and solidified, the tissue was taken out of the dehydration box, put into the embedding frame according to the requirements of the embedding surface, marked and cooled at −20° C. After completely solidified, the wax block was removed from the embedding frame and trimmed.
# 4) Section: The trimmed wax block was put on a paraffin microtome for sectioning. The section thickness was about 4 μm. The sections were floated on warm water at 40° C. of the flotation workstation and flatten. A glass slide was used to lift the tissue from the warm water, and put into a 60° C. oven for dryness. After the water was dried and the wax melted, the glass slide was taken out and stored at ambient temperature for later use. […]
# [3] = system: lung fibroblast cell line MRC-5; experiment: Cytotoxic activity test (MTS), MRC-5; type: cell-based, human; conditions: 5 μM
# Method: as §9, §10, §11, §12, §13, §14
# Sequence of Src (P12931 whole entry, looked up, species assumed): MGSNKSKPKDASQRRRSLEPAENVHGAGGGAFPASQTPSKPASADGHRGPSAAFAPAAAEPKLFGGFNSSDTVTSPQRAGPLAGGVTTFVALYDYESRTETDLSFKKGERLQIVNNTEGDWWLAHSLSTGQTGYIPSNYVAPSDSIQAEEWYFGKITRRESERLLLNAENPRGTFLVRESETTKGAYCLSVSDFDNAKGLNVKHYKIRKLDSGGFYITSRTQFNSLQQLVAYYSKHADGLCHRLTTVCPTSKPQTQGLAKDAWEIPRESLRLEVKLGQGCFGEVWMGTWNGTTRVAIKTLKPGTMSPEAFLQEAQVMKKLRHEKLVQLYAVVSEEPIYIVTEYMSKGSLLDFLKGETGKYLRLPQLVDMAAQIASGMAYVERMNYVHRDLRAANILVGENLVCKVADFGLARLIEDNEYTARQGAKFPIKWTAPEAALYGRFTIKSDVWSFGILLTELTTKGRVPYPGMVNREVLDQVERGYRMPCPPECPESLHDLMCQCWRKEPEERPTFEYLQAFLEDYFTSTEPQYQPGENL
# Sequence of VEGFR-1 (P17948 27-1338, species assumed): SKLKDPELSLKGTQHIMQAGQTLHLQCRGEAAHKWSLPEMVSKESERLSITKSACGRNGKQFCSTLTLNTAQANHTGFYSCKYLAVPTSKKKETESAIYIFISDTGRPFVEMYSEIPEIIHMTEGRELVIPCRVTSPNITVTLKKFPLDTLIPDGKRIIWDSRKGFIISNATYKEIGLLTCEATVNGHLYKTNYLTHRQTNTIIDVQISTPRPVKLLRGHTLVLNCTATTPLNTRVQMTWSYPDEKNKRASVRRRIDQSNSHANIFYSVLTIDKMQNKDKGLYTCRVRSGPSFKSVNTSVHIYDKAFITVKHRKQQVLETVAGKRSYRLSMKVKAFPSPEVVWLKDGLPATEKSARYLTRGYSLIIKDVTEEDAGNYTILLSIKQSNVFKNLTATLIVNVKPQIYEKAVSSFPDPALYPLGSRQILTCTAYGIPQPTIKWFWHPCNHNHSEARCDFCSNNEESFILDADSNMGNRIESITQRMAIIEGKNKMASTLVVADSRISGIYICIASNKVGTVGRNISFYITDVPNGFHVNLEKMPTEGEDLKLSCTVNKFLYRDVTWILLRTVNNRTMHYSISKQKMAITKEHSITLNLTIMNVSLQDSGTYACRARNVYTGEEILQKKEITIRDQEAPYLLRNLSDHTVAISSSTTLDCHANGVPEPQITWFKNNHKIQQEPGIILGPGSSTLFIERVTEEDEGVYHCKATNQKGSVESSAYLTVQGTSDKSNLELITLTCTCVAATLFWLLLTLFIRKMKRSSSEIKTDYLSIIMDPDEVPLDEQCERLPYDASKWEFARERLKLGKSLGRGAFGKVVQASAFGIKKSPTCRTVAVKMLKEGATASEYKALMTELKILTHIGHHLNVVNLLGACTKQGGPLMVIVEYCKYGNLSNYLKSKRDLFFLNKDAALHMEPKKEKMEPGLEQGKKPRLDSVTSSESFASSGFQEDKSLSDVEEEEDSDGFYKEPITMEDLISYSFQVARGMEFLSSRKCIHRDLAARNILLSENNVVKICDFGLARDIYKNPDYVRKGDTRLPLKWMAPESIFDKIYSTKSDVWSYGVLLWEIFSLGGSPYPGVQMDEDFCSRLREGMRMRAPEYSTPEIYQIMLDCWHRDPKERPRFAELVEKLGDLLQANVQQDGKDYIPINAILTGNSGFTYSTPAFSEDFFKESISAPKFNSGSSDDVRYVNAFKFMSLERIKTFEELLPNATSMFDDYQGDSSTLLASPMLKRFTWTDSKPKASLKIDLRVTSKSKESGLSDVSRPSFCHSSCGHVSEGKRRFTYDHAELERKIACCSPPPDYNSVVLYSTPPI
# Sequence of RET (P07949 29-1114, species assumed): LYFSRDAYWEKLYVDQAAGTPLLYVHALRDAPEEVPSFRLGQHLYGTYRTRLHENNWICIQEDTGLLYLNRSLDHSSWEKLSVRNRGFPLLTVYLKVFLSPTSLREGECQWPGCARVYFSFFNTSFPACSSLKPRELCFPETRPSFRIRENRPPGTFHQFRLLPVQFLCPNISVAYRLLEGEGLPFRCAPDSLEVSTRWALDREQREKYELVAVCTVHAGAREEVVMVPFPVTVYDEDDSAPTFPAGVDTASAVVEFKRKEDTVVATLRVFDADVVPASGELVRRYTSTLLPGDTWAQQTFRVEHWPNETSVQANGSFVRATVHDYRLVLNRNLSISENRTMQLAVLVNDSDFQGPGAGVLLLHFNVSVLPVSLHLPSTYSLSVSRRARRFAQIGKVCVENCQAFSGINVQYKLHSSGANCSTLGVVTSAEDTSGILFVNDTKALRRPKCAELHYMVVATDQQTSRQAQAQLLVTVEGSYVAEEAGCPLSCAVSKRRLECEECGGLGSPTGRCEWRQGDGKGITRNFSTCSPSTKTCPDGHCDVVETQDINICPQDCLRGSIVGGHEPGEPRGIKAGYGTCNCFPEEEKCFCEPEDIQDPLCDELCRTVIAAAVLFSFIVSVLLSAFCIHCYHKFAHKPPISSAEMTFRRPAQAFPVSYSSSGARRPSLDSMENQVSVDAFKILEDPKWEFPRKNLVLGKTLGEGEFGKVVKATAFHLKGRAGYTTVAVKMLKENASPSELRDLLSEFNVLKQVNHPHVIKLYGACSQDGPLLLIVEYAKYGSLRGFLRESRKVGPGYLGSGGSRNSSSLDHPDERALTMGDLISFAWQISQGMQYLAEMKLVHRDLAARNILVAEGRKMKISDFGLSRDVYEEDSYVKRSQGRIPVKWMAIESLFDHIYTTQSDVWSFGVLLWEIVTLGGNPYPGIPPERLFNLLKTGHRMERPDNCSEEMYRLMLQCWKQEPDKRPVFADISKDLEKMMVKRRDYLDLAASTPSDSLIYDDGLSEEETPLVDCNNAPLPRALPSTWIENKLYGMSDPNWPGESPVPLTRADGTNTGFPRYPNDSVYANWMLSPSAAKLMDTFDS
# Sequence of FGFR-2 (P21802 22-821, species assumed): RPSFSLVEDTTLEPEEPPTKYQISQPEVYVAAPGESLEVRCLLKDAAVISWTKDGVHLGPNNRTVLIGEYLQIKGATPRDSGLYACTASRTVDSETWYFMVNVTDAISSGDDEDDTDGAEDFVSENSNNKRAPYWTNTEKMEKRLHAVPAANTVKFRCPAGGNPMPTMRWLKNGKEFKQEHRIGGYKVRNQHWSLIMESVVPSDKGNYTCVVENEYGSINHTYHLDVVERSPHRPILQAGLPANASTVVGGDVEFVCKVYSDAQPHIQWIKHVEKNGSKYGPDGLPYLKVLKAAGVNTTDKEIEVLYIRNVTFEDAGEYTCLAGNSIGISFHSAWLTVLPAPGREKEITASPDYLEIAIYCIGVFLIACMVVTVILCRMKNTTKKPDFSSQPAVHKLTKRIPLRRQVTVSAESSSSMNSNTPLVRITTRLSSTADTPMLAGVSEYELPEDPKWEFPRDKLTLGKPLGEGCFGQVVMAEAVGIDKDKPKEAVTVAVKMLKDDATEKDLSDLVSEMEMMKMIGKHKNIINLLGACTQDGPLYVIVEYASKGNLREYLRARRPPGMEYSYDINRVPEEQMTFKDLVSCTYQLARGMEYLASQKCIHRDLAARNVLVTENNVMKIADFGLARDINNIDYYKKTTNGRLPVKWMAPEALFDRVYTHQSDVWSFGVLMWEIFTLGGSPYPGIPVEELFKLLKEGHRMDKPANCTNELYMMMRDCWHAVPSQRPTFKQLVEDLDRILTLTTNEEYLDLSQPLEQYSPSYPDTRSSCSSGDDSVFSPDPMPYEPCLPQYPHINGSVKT
# Sequence of IGF-1R (P08069 31-1367, species assumed): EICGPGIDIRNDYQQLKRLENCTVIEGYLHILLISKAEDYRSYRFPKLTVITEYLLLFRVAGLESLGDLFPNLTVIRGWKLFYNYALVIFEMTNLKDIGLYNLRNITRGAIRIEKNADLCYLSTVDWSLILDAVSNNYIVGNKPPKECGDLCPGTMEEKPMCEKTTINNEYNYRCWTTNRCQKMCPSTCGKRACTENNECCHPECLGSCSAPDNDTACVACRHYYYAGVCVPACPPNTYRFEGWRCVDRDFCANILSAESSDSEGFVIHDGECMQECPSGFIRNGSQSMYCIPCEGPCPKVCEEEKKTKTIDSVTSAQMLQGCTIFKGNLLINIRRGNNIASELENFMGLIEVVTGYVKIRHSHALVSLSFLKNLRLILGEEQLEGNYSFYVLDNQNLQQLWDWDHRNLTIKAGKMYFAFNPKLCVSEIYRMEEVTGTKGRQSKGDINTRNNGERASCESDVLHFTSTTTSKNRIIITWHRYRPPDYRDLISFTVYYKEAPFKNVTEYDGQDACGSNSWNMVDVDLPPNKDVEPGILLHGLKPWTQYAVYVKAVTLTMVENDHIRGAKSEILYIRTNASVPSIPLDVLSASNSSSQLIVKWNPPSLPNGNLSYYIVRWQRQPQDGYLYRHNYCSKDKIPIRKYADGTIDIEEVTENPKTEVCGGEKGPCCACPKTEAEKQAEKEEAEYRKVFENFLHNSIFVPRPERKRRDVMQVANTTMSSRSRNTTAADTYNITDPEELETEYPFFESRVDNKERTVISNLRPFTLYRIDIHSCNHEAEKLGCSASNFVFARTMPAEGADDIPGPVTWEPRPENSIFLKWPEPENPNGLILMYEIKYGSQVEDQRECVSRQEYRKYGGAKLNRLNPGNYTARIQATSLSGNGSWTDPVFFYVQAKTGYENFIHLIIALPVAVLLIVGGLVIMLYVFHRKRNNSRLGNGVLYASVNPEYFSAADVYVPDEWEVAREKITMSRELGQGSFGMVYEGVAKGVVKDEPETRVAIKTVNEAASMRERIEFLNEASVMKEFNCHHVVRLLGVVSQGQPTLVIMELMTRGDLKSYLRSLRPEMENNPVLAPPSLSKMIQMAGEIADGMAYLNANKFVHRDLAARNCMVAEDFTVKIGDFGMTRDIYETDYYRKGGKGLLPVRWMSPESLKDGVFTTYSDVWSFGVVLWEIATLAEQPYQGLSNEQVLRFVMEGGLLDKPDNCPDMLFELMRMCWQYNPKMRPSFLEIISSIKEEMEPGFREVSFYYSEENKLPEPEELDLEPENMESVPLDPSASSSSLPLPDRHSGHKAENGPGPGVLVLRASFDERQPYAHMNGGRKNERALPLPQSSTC
structure (smiles),measurement,setting,value
"CC(NC(=O)c1ccc(C2CC2)c(-c2ccc3nc(Nc4cnn(C5CC5)c4)ncc3c2)c1)c1cccc(C(F)(F)F)c1 (stereo not drawn) [Compound S16, 4-cyclopropyl-3-(2-((1-cyclopropyl-1H-pyrazol-4-yl)amino)quinazolin-6-yl)-N-(1-(3-(trifluoromethyl)phenyl)ethyl)benzamide]",IC50,AXL,> 1 µM
same,IC50,VEGFR-1,> 1 µM
same,IC50,FGFR-2,> 1 µM
same,IC50,Flt-3,> 1 µM
same,IC50,DDR2,0.0383 ± 0.0028 µM
same,IC50,PDGFR-β,> 1 µM
same,IC50,FGFR-4,> 1 µM
same,IC50,PDGFR-α,> 1 µM
same,IC50,KDR,> 1 µM
same,IC50,RET,> 1 µM
same,IC50,ALK,> 1 µM
same,IC50,Met,> 1 µM
same,IC50,ErbB4,> 1 µM
same,IC50,Abl,> 1 µM
same,IC50,FGFR-3,> 1 µM
same,IC50,C-Kit,> 1 µM
same,IC50,EPH-A2,> 1 µM
same,IC50,ErbB2,> 1 µM
same,IC50,Src,> 1 µM
same,IC50,FGFR-1,> 1 µM
same,IC50,IGF-1R,> 1 µM
same,selectivity for kinases,kinases,good selectivity
same,IC50,EGFR,> 1 µM
COC(=O)c1ccc2c(c1)NC(=O)/C2=C(\Nc1ccc(N(C)C(=O)CN2CCN(C)CC2)cc1)c1ccccc1 [Nintedanib],cytotoxic activity on Beas-2B,[1],significant cytotoxicity
same,"BLM-induced lung injury, H&E staining","[2]; Effect example 4, S15 30, 60, 90 mg/kg, Nintedanib 30 mg/kg, oral qd 12 days",improved significantly
same,"BLM-induced lung injury, H&E staining","[2]; Effect example 7, 30 mg/kg oral qd 12 days",significantly improved
same,cytotoxic activity on MRC-5,[3],significant cytotoxicity
